Measurements reported in patent US20250171438A1 (Agios Pharmaceuticals, Inc., priority 2022, published 2025).

molecular target: T1, human PAH with the R408W mutation (Homo sapiens, UniProt P00439, R408W); assay: Cell Based Phenylalanine Flux Assay; conditions: A375 cells expressing human R408W PAH; 24 hrs compound incubation; 13C-Tyrosine by LC-MS; average where tested multiple times; read-out: AC50
T1 construct: expressed in transfected cells
T1 sequence (P00439 1-452 R408W): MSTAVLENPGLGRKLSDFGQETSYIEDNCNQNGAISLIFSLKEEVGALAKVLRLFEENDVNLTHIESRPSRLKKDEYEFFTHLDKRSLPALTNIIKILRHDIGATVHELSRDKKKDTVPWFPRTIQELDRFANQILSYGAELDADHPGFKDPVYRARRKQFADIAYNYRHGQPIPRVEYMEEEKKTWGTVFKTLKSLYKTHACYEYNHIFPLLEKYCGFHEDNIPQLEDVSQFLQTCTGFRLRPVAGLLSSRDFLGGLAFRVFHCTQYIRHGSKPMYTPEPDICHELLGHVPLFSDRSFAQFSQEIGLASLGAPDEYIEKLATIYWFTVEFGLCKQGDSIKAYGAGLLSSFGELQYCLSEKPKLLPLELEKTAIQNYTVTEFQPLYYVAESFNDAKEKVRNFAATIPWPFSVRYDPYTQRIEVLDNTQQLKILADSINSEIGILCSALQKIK

| Compound | AC50 |
| --- | --- |
| O=C(c1oc(-c2ccccn2)nc1Br)N1CCc2[nH]cnc2[C@@H]1c1nc2ccccc2s1 [Example 1849, (R)-(4-(benzo[d]thiazol-2-yl)-6,7-dihydro-1H-imidazo[4,5-c]pyridin-5(4H)-yl)(4-bromo-2-(pyridin-2-yl)oxazol-5-yl)methanone] | 1000 to 5000 nM |
| N#Cc1ncoc1C(=O)N1CC2(CC2)c2[nH]cnc2[C@@H]1c1nc2ccccc2s1 [Example 1663, (R)-5-(4′-(benzo[d]thiazol-2-yl)-1′,4′,5′,6′-tetrahydrospiro[cyclopropane-1,7′-imidazo[4,5-c]pyridin]-5′-ylcarbonyl)oxazole-4-carbonitrile] | > 5000 nM |
| Cc1nn(C)cc1-c1nnc(C(=O)N2CCc3[nH]cnc3[C@@H]2c2nc3ccccc3s2)o1 [Example 1926, (R)-(4-(benzo[d]thiazol-2-yl)-6,7-dihydro-1H-imidazo[4,5-c]pyridin-5(4H)-yl)(5-(1,3-dimethyl-1H-pyrazol-4-yl)-1,3,4-oxadiazol-2-yl)methanone] | 1000 to 5000 nM |
| CC(C)(O)c1nc(C(F)F)c(C(=O)N2CCc3[nH]cnc3[C@@H]2c2nc3c(C(F)(F)F)cccc3s2)o1 [Example 2104, (R)-(4-(difluoromethyl)-2-(2-hydroxypropan-2-yl)oxazol-5-yl)(4-(4-(trifluoromethyl)benzo[d]thiazol-2-yl)-6,7-dihydro-1H-imidazo[4,5-c]pyridin-5(4H)-yl)methanone] | 500 to 1000 nM |
| O=C(c1nnc(-c2ccc(F)cn2)o1)N1CCc2[nH]cnc2[C@@H]1c1nc2ccccc2s1 [Example 1366, (R)-(4-(benzo[d]thiazol-2-yl)-6,7-dihydro-1H-imidazo[4,5-c]pyridin-5(4H)-yl)(5-(5-fluoropyridin-2-yl)-1,3,4-oxadiazol-2-yl)methanone] | 1000 to 5000 nM |
| COCCc1nc(C)c(C(=O)N2CCc3[nH]cnc3[C@@H]2c2nc3ccccc3s2)o1 [Example 1730, (R)-(4-(benzo[d]thiazol-2-yl)-1,4,6,7-tetrahydro-5H-imidazo[4,5-c]pyridin-5-yl)(2-(2-methoxyethyl)-4-methyloxazol-5-yl)methanone] | > 5000 nM |
| Cn1cc(C(F)(F)C(=O)N2CCc3[nH]cnc3[C@H]2c2nc3ccccc3s2)cn1 [Example 1555] | 1000 to 5000 nM |
| O=C(c1nccs1)N1CCc2[nH]cnc2[C@H]1c1nc2ccccc2s1 [Example 1007] | < 500 nM |
| Cc1ccc2sc([C@H]3c4nc[nH]c4CCN3C(=O)c3cnco3)nc2c1 [Example 2174, (R)-(4-(5-methylbenzo[d]thiazol-2-yl)-6,7-dihydro-1H-imidazo[4,5-c]pyridin-5(4H)-yl)(oxazol-5-yl)methanone] | > 5000 nM |
| O=C(c1cnn2ccc(F)cc12)N1CCc2[nH]cnc2[C@@H]1c1nc2ccccc2s1 [Example 1104, (R)-(4-(benzo[d]thiazol-2-yl)-6,7-dihydro-1H-imidazo[4,5-c]pyridin-5(4H)-yl)(5-fluoropyrazolo[1,5-a]pyridin-3-yl)methanone] | 1000 to 5000 nM |
| O=C(c1cnc(-c2ccc(F)cn2)s1)N1CCc2[nH]cnc2[C@@H]1c1nc2ccccc2s1 [Example 1340, (R)-(4-(benzo[d]thiazol-2-yl)-6,7-dihydro-1H-imidazo[4,5-c]pyridin-5(4H)-yl)(2-(5-fluoropyridin-2-yl)thiazol-5-yl)methanone] | 1000 to 5000 nM |
| O=C(c1oc(C2(O)CC2)nc1C(F)(F)F)N1CCc2[nH]cnc2[C@H]1c1nc2c(F)cccc2s1 [Example 2185, (S)-(4-(4-fluorobenzo[d]thiazol-2-yl)-1,4,6,7-tetrahydro-5H-imidazo[4,5-c]pyridin-5-yl)(2-(1-hydroxycyclopropyl)-4-(trifluoromethyl)oxazol-5-yl)methanone] | < 500 nM |
| O=C(c1cnn(CC2CC(F)(F)C2)c1Cl)N1CCc2[nH]cnc2[C@@H]1c1nc2c(F)cccc2s1 [Example 1990, (R)-(5-chloro-1-((3,3-difluorocyclobutyl)methyl)-1H-pyrazol-4-yl)(4-(4-fluorobenzo[d]thiazol-2-yl)-6,7-dihydro-1H-imidazo[4,5-c]pyridin-5(4H)-yl)methanone] | 1000 to 5000 nM |
| O=C(CCc1nnc(Br)s1)N1CCc2[nH]cnc2[C@H]1c1nc2ccccc2s1 [Example 1089] | 500 to 1000 nM |
| Cn1nc(C(F)F)cc1C(=O)N1CCc2[nH]cnc2[C@@H]1c1nc2ccccc2s1 [Example 1804, (R)-(4-(benzo[d]thiazol-2-yl)-6,7-dihydro-1H-imidazo[4,5-c]pyridin-5(4H)-yl)(3-(difluoromethyl)-1-methyl-1H-pyrazol-5-yl)methanone] | 1000 to 5000 nM |
| Cn1nccc1-c1nnc(C(=O)N2CCc3[nH]cnc3[C@@H]2c2nc3ccccc3s2)o1 [Example 1946, (R)-(4-(benzo[d]thiazol-2-yl)-6,7-dihydro-1H-imidazo[4,5-c]pyridin-5(4H)-yl)(5-(1-methyl-1H-pyrazol-5-yl)-1,3,4-oxadiazol-2-yl)methanone] | 1000 to 5000 nM |
| CC(C)(C)CCC(=O)N1CCc2[nH]cnc2[C@H]1c1nc2ccc(Br)cc2[nH]1 [Example 942, (S)-1-(4-(6-bromo-1H-benzo[d]imidazol-2-yl)-6,7-dihydro-1H-imidazo[4,5-c]pyridin-5(4H)-yl)-4,4-dimethylpentan-1-one] | 500 to 1000 nM |
| C[C@H]1CN(C(=O)c2ocnc2C2CC2)[C@@H](c2nc3c(F)cccc3s2)c2nc[nH]c21 [Example 1607, (4-cyclopropyloxazol-5-yl)((4R,7S)-4-(4-fluorobenzo[d]thiazol-2-yl)-7-methyl-6,7-dihydro-1H-imidazo[4,5-c]pyridin-5(4H)-yl)methanone] | 1000 to 5000 nM |
| O=C(c1ncn2ccccc12)N1CCc2[nH]cnc2[C@@H]1c1nc2cc(F)ccc2s1 [Example 1158, (R)-(4-(5-fluorobenzo[d]thiazol-2-yl)-6,7-dihydro-1H-imidazo[4,5-c]pyridin-5(4H)-yl)(imidazo[1,5-a]pyridin-1-yl)methanone] | > 5000 nM |
| O=C(CCc1ccc(F)cc1)N1CCc2[nH]cnc2[C@H]1c1nc2ccccc2s1 [Example 1005] | 500 to 1000 nM |
| O=C(c1cnn2cc(F)ccc12)N1CCc2[nH]cnc2[C@H]1c1nc2c(F)cccc2s1 [Example 1215, (S)-(4-(4-fluorobenzo[d]thiazol-2-yl)-6,7-dihydro-1H-imidazo[4,5-c]pyridin-5(4H)-yl)(6-fluoropyrazolo[1,5-a]pyridin-3-yl)methanone] | < 500 nM |
| Cc1cccc2sc([C@@H]3c4nc[nH]c4CCN3C(=O)c3ncnn3C)nc12 [Example 2015] | 500 to 1000 nM |
| Cc1ccc2nc([C@@H]3c4nc[nH]c4CCN3C(=O)c3cnco3)sc2c1 [Example 2175, (S)-(4-(6-methylbenzo[d]thiazol-2-yl)-6,7-dihydro-1H-imidazo[4,5-c]pyridin-5(4H)-yl)(oxazol-5-yl)methanone] | 500 to 1000 nM |
| O=C(c1cnc(-c2ccccn2)s1)N1CCc2[nH]cnc2[C@H]1c1nc2ccccc2s1 [Example 1205] | < 500 nM |
| O=C(c1nnc(-c2ncccc2F)o1)N1CCc2[nH]cnc2[C@H]1c1nc2c(F)cccc2s1 [Example 1902, (S)-(4-(4-fluorobenzo[d]thiazol-2-yl)-6,7-dihydro-1H-imidazo[4,5-c]pyridin-5(4H)-yl)(5-(3-fluoropyridin-2-yl)-1,3,4-oxadiazol-2-yl)methanone] | < 500 nM |
| O=C(CC1CC1)N1CCc2[nH]cnc2[C@H]1c1nc2cc(F)ccc2s1 [Example 1135, (S)-2-cyclopropyl-1-(4-(5-fluorobenzo[d]thiazol-2-yl)-6,7-dihydro-1H-imidazo[4,5-c]pyridin-5(4H)-yl)ethanone] | 500 to 1000 nM |
| O=C(c1nnc(-c2cc(C(F)(F)F)ccn2)o1)N1CCc2[nH]cnc2[C@@H]1c1nc2c(F)cccc2s1 [Example 1905, (R)-(4-(4-fluorobenzo[d]thiazol-2-yl)-6,7-dihydro-1H-imidazo[4,5-c]pyridin-5(4H)-yl)(5-(4-(trifluoromethyl)pyridin-2-yl)-1,3,4-oxadiazol-2-yl)methanone] | 500 to 1000 nM |

same assay, conditions: A375 cells expressing human R408W PAH; 24 hrs with compound; 13C-Tyrosine by LC-MS; average where tested multiple times; read-out: AC50

| Compound | AC50 |
| --- | --- |
| O=C(c1cnn2c(Br)cccc12)N1CCc2[nH]cnc2C1c1nc2ccc(Br)cc2[nH]1 (stereo not shown) | 1000 to 5000 nM |
| Cc1nnc(CCC(=O)N2CCc3[nH]cnc3C2c2nc3cc(F)ccc3s2)s1 (stereo not shown) | > 5000 nM |
| O=C(Cc1nccs1)N1CCc2[nH]cnc2C1c1nc2ccc(Br)cc2s1 (stereo not shown) | > 5000 nM |
| N#Cc1ccn2ncc(C(=O)N3CCc4[nH]cnc4C3c3nc4ccc(Br)cc4[nH]3)c2c1 (stereo not shown) | 1000 to 5000 nM |
| CC(C)(O)Cn1ncc(C(=O)N2CCc3[nH]cnc3C2c2nc3c(F)cccc3s2)c1Cl (stereo not shown) | 1000 to 5000 nM |
| Cc1nc(-c2ccccn2)c(C(=O)N2CCc3[nH]cnc3C2c2nc3c(F)cccc3s2)o1 (stereo not shown) | 1000 to 5000 nM |
| CC(C)(O)c1ncc(C(=O)N2CCc3[nH]cnc3[C@H]2c2nc3ccccc3[nH]2)o1 [(S)-(4-(1H-benzo[d]imidazol-2-yl)-6,7-dihydro-1H-imidazo[4,5-c]pyridin-5(4H)-yl)(2-(2-hydroxypropan-2-yl)oxazol-5-yl)methanone] | > 5000 nM |
| O=C(c1cnc(Br)s1)N1CCc2[nH]cnc2C1c1nc2ccccc2s1 (stereo not shown) | > 5000 nM |
| O=C(CCc1ccncc1)N1CCc2[nH]cnc2C1c1nc2ccccc2[nH]1 (stereo not shown) | > 5000 nM |
| O=C(c1cnn2cccc(F)c12)N1CCc2[nH]cnc2C1c1nc2ccccc2s1 (stereo not shown) | 1000 to 5000 nM |
| O=C(c1ncco1)N1CCc2[nH]cnc2C1c1nc2cc(F)ccc2s1 (stereo not shown) | > 5000 nM |
| O=C(c1cnn2cccc(F)c12)N1CCc2[nH]cnc2C1c1nc2ccc(F)cc2s1 (stereo not shown) | 1000 to 5000 nM |
| COc1cccc(CCC(=O)N2CCc3[nH]cnc3C2c2nc3ccccc3[nH]2)c1 (stereo not shown) | 1000 to 5000 nM |
